Source: ChEMBL document CHEMBL6074642, “Natural and Bioinspired Lipidic Alkynylcarbinols as Leishmanicidal, Antiplasmodial, Trypanocidal, Fungicidal, Antibacterial, and Antimycobacterial Agents” (J Nat Prod, 2024)

Test system: Mycobacterium tuberculosis
Assay: Antibacterial activity against multi-drug resistant Mycobacterium tuberculosis assessed as reduction in microbial growth
Assay type: functional

C=C[C@@H](O)C#CC#C[C@@H](O)/C=C\CCCCCCC [FALCARINDIOL]
MIC: 32 mg/L
